# Measurements: patent US3966718A, “7-β-Acylamino-ceph-3-ems and salts and esters therefor” (Beecham Group Limited, priority 1973, dated 1976)
# Counter-ions that a name gives are not always drawn. Like-named read-outs stand apart in the source and are kept apart here.
# Tests used:
# Format in all cases: cell-based
# Staph. aureus Oxford = experiment: MIC on (nutrient) agar; conditions: Staphylococcus aureus, read-out: minimum inhibitory concentration (MIC)
# Klebsiella aerogenes A = experiment: MIC on nutrient agar; conditions: read-out: minimum inhibitory concentration (MIC)
# Proteus mirabilis C977 = experiment: MIC on nutrient agar; conditions: Proteus mirabilis C977, nutrient agar; read-out: minimum inhibitory concentration (MIC)
# β-Haemolytic Strep. CN10 = experiment: MIC on (nutrient) agar; conditions: read-out: minimum inhibitory concentration (MIC)
# Shigella sonnei = experiment: MIC on nutrient agar; conditions: read-out: minimum inhibitory concentration (MIC)
# Salmonella typhi = experiment: MIC on nutrient agar; conditions: Salmonella enterica, read-out: minimum inhibitory concentration (MIC)
# E. coli JT 1 = experiment: MIC on nutrient agar; conditions: Escherichia coli
# B. subtilis = experiment: MIC on (nutrient) agar; conditions: Bacillus subtilis, read-out: minimum inhibitory concentration (MIC)
# Staph. aureus Russell = experiment: MIC on (nutrient) agar; conditions: Staphylococcus aureus, read-out: minimum inhibitory concentration (MIC)
# Strep. pneumoniae CN33 = experiment: MIC on (nutrient) agar; conditions: Streptococcus pneumoniae, read-out: minimum inhibitory concentration (MIC)
# E. coli NCTC 10418 = experiment: MIC on nutrient agar; conditions: Escherichia coli, NCTC10418; E. coli NCTC 10418, nutrient agar; read-out: minimum inhibitory concentration (MIC)
# [1] = Klebsiella aerogenes A, nutrient agar
# [2] = JT1, E. coli JT 1, nutrient agar, read-out: minimum inhibitory concentration (MIC)
SMILES,MIC (Staph. aureus Oxford),MIC (Klebsiella aerogenes A; Klebsiella aerogenes),MIC (Proteus mirabilis C977),"MIC (β-Haemolytic Strep. CN10; β-Haemolytic Strep. CN10, agar)",MIC (Shigella sonnei),MIC (Salmonella typhi),"MIC (E. coli JT 1; JT1, read-out: minimum inhibitory concentration (MIC))","MIC (B. subtilis; B. subtilis, agar)","MIC (Staph. aureus Russell; Staph. aureus Russell, agar)",MIC (Klebsiella aerogenes A; [1]),MIC (E. coli JT 1; [2]),MIC (Strep. pneumoniae CN33),MIC (E. coli NCTC 10418),MIC (β-Haemolytic Strep. CN10),MIC (B. subtilis),MIC (Staph. aureus Russell)
"NC(CC(=O)N[C@@H]1C(=O)N2C(C(=O)O)=C(Cc3cccnc3)CS[C@H]12)C1CC=CCC1 (mixture of isomers) [Example 18, 7β-(DL-3-[cyclohex-3-ene]-3-aminopropionamido)-3(3-pyridylmethyl)-3-cephem-4-carboxylic acid di-trifluoroacetic acid salt]",0.5 µg/mL,125 µg/mL,250 µg/mL,0.5 µg/mL,125 µg/mL,125 µg/mL,125 µg/mL,1.25 µg/mL,1.25 µg/mL,–,–,–,–,–,–,–
"NC(C(=O)N[C@@H]1C(=O)N2C(C(=O)O)=C(Cc3cccnc3)CS[C@H]12)C1CC1 (mixture of isomers) [Example 19, 7β-(DL-α-aminocyclopropylacetamido)-3(3-pyridylmethyl)-3-cephem-4-carboxylic acid di-trifluoroacetic acid salt]",5 µg/mL,–,500 µg/mL,2.5 µg/mL,250 µg/mL,250 µg/mL,–,12.5 µg/mL,12.5 µg/mL,250 µg/mL,500 µg/mL,–,–,–,–,–
"O=C(Cc1cccs1)N[C@@H]1C(=O)N2C(C(=O)O)=C(Cc3cccnc3)CS[C@H]12 [Example 1, 3-(3-pyridylmethyl)-7β-(2-thienylacetamido)-3-cephem-4-carboxylic acid trifluoroacetate salt]",0.05 µg/mL,–,–,0.1 µg/mL,–,–,–,0.25 µg/mL,10 µg/mL,–,–,0.1 µg/mL,–,–,–,–
"O=C(O)C1=C(Cc2cccnc2)CS[C@@H]2[C@H](NC(=O)[C@H](O)c3ccccc3)C(=O)N12 [Example 3, 7β(D-α-hydroxyphenylacetamido)-3(3-pyridylmethyl)-3-cephem-4-carboxylic acid trifluoroacetate salt]",0.25 µg/mL,–,5 µg/mL,0.25 µg/mL,2.5 µg/mL,2.5 µg/mL,–,0.12 µg/mL,12.5 µg/mL,2.5 µg/mL,–,0.5 µg/mL,2.5 µg/mL,–,–,–
"N[C@@H](C(=O)N[C@@H]1C(=O)N2C(C(=O)O)=C(Cc3cccnc3)CS[C@H]12)c1ccccc1 [Example 4, 7β(D-α-aminophenylacetamido)-3(3-pyridylmethyl)-3-cephem-4-carboxylic acid di-trifluoroacetate salt]",0.25 µg/mL,–,5 µg/mL,0.25 µg/mL,2.5 µg/mL,1.25 µg/mL,–,0.25 µg/mL,2.5 µg/mL,2.5 µg/mL,–,0.5 µg/mL,2.5 µg/mL,–,–,–
"C[n+]1cccc(CC2=C(C(=O)O)N3C(=O)[C@@H](NC(=O)[C@H](O)c4ccccc4)[C@H]3SC2)c1 [Example 5, 7β(D-α-hydroxyphenylacetamide)-3(3-pyridylmethyl)-3-cephem-4-carboxylic acid metho-trifluoroacetate]",0.12 µg/mL,–,125 µg/mL,0.02 µg/mL,50 µg/mL,50 µg/mL,–,0.25 µg/mL,5 µg/mL,50 µg/mL,–,0.12 µg/mL,50 µg/mL,–,–,–
"O=C(O)C(F)(F)F.O=C(O)C1=C(Cc2cccnc2)CS[C@@H]2[C@H](NC(=O)C(C(=O)Oc3ccccc3)c3ccccc3)C(=O)N12 (stereo partly drawn) [Example 6, 7β(α-phenoxycarbonylphenylacetamido)-3(3-pyridylmethyl)-3-cephem-4-carboxylic acid trifluoroacetate]",5 µg/mL,–,25 µg/mL,–,12.5 µg/mL,125 µg/mL,–,–,25 µg/mL,–,–,–,50 µg/mL,12.5 µg/mL,12.5 µg/mL,–
"N[C@@H](C(=O)N[C@@H]1C(=O)N2C(C(=O)O)=C(Cc3ccccn3)CS[C@H]12)c1ccccc1 [Example 7, 7β(Dα-aminophenylacetamido)-3(2-pyridylmethyl)-3-cephem-4-carboxylic acid di-trifluoroacetate]",1.25 µg/mL,–,125 µg/mL,1.25 µg/mL,25 µg/mL,12.5 µg/mL,–,1.25 µg/mL,–,–,–,–,50 µg/mL,–,–,12.5 µg/mL
"O=C(O)C1=C(Cc2cccnc2)CS[C@@H]2[C@H](NC(=O)[C@H](NC(=O)N3CCNC3=O)c3ccccc3)C(=O)N12 [Example 8, 7β-[D-2-(1-imidazolidonecarbonylamino)phenylacetamido]-3(3-pyridylmethyl)-3-cephem-4-carboxylic acid trifluoroacetic acid salt]",0.25 µg/mL,–,50 µg/mL,0.12 µg/mL,25 µg/mL,25 µg/mL,–,1.25 µg/mL,12.5 µg/mL,12.5 µg/mL,–,0.25 µg/mL,25 µg/mL,–,–,–
"O=C(COc1ccccc1)N[C@@H]1C(=O)N2C(C(=O)O)=C(Cc3cccnc3)CS[C@H]12 [Example 9, 7β-phenoxyacetamido-3(3-pyridylmethyl)-3-cephem-4-carboxylic acid trifluoroacetic acid salt]",0.02 µg/mL,–,125 µg/mL,0.12 µg/mL,500 µg/mL,500 µg/mL,–,0.25 µg/mL,0.12 µg/mL,500 µg/mL,–,0.12 µg/mL,500 µg/mL,–,–,–
"CCSCC(=O)N[C@@H]1C(=O)N2C(C(=O)O)=C(Cc3cccnc3)CS[C@H]12 [Example 10, 7β-ethylthioacetamido-3(3-pyridylmethyl)-3-cephem-4-carboxylic acid trifluoroacetic acid salt]",0.05 µg/mL,–,25 µg/mL,0.12 µg/mL,50 µg/mL,50 µg/mL,–,0.5 µg/mL,1.25 µg/mL,50 µg/mL,–,0.25 µg/mL,50 µg/mL,–,–,–
"N=C(N)N[C@@H](C(=O)N[C@@H]1C(=O)N2C(C(=O)O)=C(Cc3cccnc3)CS[C@H]12)c1ccccc1 [Example 11, 7β(Dα-guanidinophenylacetamido)-3(3-pyridylmethyl)-3-cephem-4-carboxylic acid di-trifluoroacetic acid salt]",0.5 µg/mL,–,> 100 µg/mL,0.1 µg/mL,> 100 µg/mL,> 100 µg/mL,–,2.5 µg/mL,2.5 µg/mL,> 100 µg/mL,–,0.1 µg/mL,> 100 µg/mL,–,–,–
"C[n+]1cccc(CC2=C(C(=O)O)N3C(=O)[C@@H](NC(=O)[C@H](N)c4ccccc4)[C@H]3SC2)c1 [Example 12, 7β(Dα-aminophenylacetamido)-3(3-pyridylmethyl)-3-cephem-4-carboxylic acid metho-trifluoroacetate trifluoroacetic acid salt]",0.25 µg/mL,–,125 µg/mL,0.05 µg/mL,50 µg/mL,50 µg/mL,–,0.5 µg/mL,12.5 µg/mL,50 µg/mL,–,0.25 µg/mL,50 µg/mL,–,–,–
"N[C@@H](C(=O)N[C@@H]1C(=O)N2C(C(=O)O)=C(Cc3cccnc3)CS[C@H]12)c1ccc(O)cc1 [Example 13, 7-(2-Amino-2-p-hydroxyphenylacetamido)-4-carboxy-3-(3-pyridylmethyl) ceph-3-em bis-trifluoroacetic acid salt]",0.25 µg/mL,1.25 µg/mL,5 µg/mL,0.12 µg/mL,5 µg/mL,1.25 µg/mL,–,0.25 µg/mL,2.5 µg/mL,–,–,0.12 µg/mL,5 µg/mL,–,–,–
"O=C(O)CSCC(=O)N[C@@H]1C(=O)N2C(C(=O)O)=C(Cc3cccnc3)CS[C@H]12 [Example 14, 4-Carboxy-7-carboxymethylthioacetamido-3-(3-pyridylmethyl)ceph-3-em trifluoroacetic acid salt]",1.25 µg/mL,–,50 µg/mL,5 µg/mL,50 µg/mL,50 µg/mL,–,25 µg/mL,12.5 µg/mL,25 µg/mL,–,12.5 µg/mL,50 µg/mL,–,–,–
"NC(C(=O)N[C@@H]1C(=O)N2C(C(=O)O)=C(Cc3cccnc3)CS[C@H]12)c1cccs1 (stereo partly drawn) [Example 15, 7-β-[(dl)-α-Amino-2-thienylacetamido]-3-(3-pyridylmethyl)-3-cephem-4-carboxylic acid Di-trifluoroacetic acid salt]",0.5 µg/mL,–,12.5 µg/mL,0.5 µg/mL,5 µg/mL,2.5 µg/mL,–,1.25 µg/mL,5 µg/mL,5 µg/mL,12.5 µg/mL,–,–,–,–,–
"O=C(CSc1ccncc1)N[C@@H]1C(=O)N2C(C(=O)O)=C(Cc3cccnc3)CS[C@H]12 [Example 16, 7β(4-pyridylthioacetamido)-3(3-pyridylmethyl)-3-cephem-4-carboxylic acid di-trifluoroacetic acid salt]",< 0.02 µg/mL,–,100 µg/mL,< 0.02 µg/mL,25 µg/mL,10 µg/mL,–,< 0.02 µg/mL,1 µg/mL,5 µg/mL,–,< 0.02 µg/mL,25 µg/mL,–,–,–
